The values below come from patent US8252559B2, “Methods and systems for selective fluorination of organic molecules” (The California Institute of Technology, priority 2006, dated 2012).

Broadly, the Papp is the rate of passage across a membrane or cell layer, normalised by area and donor concentration.

This data set is described as follows: in vitro. The note with it: PAMPA; for Papp at 0.5 mg/mL: pig, pH 7.4. Here is the method: Effective permeability values (Pe) are calculated by monitoring accumulation of the organic molecule in a cross-membrane compartment. […] M+/M− refers to the fraction of compound that crossed the BBB-mimic membrane as compared to system with no membrane after 16 hour incubation at room temperature. Values are means of three replicates.
Membrane permeability assay. The membrane permeability assays were carried out adapting a described procedure and using 96-well MultiScreen-IP plates from Millipore. Filter plates were rinsed with 70% EtOH and double-distilled water prior to use. BBB-mimic membranes were prepared by coating filter wells with 5 μL porcine brain lipids (PBL, Avanti Polar Lipids) in dodecane (20 mg/mL). Control wells (PBL-free) were primed in the same way but not coated with PBL. Working solutions contained 0.5 mg/mL fluorinated compound in PBS pH 7.4 (5% EtOH). Assembled plates contained 150 μL working solution in the PBL-coated (or PBL-free) well, 300 μL PBS (5% EtOH) in the acceptor well, and were incubated at room temperature and 100% humidity. The change in organic compound concentration in the donor and acceptor wells was monitored over time by HPLC. Membrane permeability values (Pe) were calculated. All measurements were performed in triplicates. The assay was validated by comparing the experimental Pe value for caffeine with that reported in the art.
Ibuprofen has recently shown promising activity against amyloidogenic diseases. Anti-amyloidogenic drugs with high brain permeability are intensively sought after. Compounds 15, 16 and 18 were tested in a membrane permeability assay that mimics the composition of the blood-brain barrier (BBB).

`Cn1c(=O)c2c(ncn2C)n(C)c1=O` [Caffeine, reference compound] registered an apparent permeability coefficient (Papp) at 0.5 mg/mL of 1.24 ×10⁻⁶ cm/s.
`COC(=O)C(C)c1ccc(CC(C)C)cc1` (centres unmarked) [Compound 12, 2-(4-Isobutyl-phenyl)-propionic acid methyl ester, reference compound]: the “Membrane permeability properties / BBB-crossing potential (in words)” value is on record as “modest BBB-crossing potential”.
In the case of `COC(=O)C(C)c1ccc(C(F)C(C)C)cc1` (centres unmarked) [Compound 15, 2-[4-(1-Fluoro-2-methyl-propyl)-phenyl]-propionic acid methyl ester], the “Membrane permeability properties / BBB-crossing potential (in words)” value is “very good” and the Papp at 0.5 mg/mL was more than 10 ×10⁻⁶ cm/s.
Consider `COC(=O)C(C)c1ccc(CC(C)(C)F)cc1` (centres unmarked) [Compound 16, 2-[4-(2-Fluoro-2-methyl-propyl)-phenyl]-propionic acid methyl ester], for which the “Membrane permeability properties / BBB-crossing potential (in words)” value is “very good” and the Papp at 0.5 mg/mL is more than 10 ×10⁻⁶ cm/s.
Consider `COC(=O)C(C)c1ccc(C(F)C(C)(C)F)cc1` (centres unmarked) [Compound 18, 2-[4-(1,2-Difluoro-2-methyl-propyl)-phenyl]-propionic acid methyl ester], for which the “Membrane permeability properties / BBB-crossing potential (in words)” value is “excellent” and the apparent permeability coefficient (Papp) at 0.5 mg/mL is more than 10 ×10⁻⁶ cm/s.
